Experiment: gradient 5% acetonitrile 3 min, to 50% in 2 min, to 85% in 15 min, held 3 min, 100 µL/min
Conditions: column: Zorbax Extend-C18 2.1 x 50 mm; eluents: water / acetonitrile, 0.1% formic acid
Summary of the method: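 Values are retention times taken from adduct peaks that software picked and an analyst inspected. The pure standards were run as mixtures of ~100 molecules on HPLC linked to a quadrupole time-of-flight mass spectrometer, in positive and negative ionization mode. A Zorbax Extend-C18 column (2.1 × 50 mm, 1.8 μm) was used at 100 μL/min with water and acetonitrile, each including 0.1% formic acid.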

Row | SMILES | RP-LC retention time [s]
1 | CC(=O)Nc1ccc(-n2cnc(C(=O)NC(C)CCc3ccccc3)c2)nc1 (stereo unspecified) | 744
2 | COc1ccc(-c2c(C(=O)Nc3ccc(C(C)=O)cc3)nc3ccccn23)cc1 | 939
3 | CCc1ccc(CNC(=O)Cn2ccc3c(=O)n(CC)c(=O)n(CC)c32)cc1 | 783
4 | CCCCNC(=O)Cn1c(=O)c2cnc(-c3ccccc3)nc2n(CC)c1=O | 937
5 | O=C(CS(=O)(=O)Cc1ccccc1)Nc1nc(-c2ccccc2)cs1 | 956
6 | O=C(Nc1nnc(Cc2ccccc2)s1)C1CC(=O)N(c2n[nH]c3ccccc23)C1 (stereo unspecified) | 730
7 | CCc1noc(NC(C)=O)c1-c1ccc(C)c(S(=O)(=O)Nc2cccc(F)c2)c1 | 822
8 | COc1ccc(C(CNC(=O)c2cc(=O)c3cc(C)c(C)cc3o2)N(C)C)cc1 (stereo unspecified) | 644
9 | Cc1ccc(NS(=O)(=O)c2cc(-c3cc(C(F)(F)F)on3)sc2C)cc1Cl | 1190
10 | COc1ccc(CCNC(=O)Cn2nc3c(Oc4ccccc4)nccn3c2=O)cc1OC | 700
11 | Cc1c(C(=O)O)nnn1-c1ccc2noc(-c3ccccc3)c2c1 | 775
12 | O=C(Nc1ccc(O)c(C(=O)O)c1)Oc1ccccc1 | 801
13 | O=C(c1c(F)cccc1F)N1CCN(S(=O)(=O)C2CC2)CC1 | 691
14 | COc1cccc(CN2CC(=O)N(Cc3ccc(F)cc3)c3ccccc3S2(=O)=O)c1 | 1100
15 | CCN(C(=O)c1ccc(OC)c(OC)c1)c1nc(-c2ccc(C)cc2)cs1 | 1200
16 | Cn1nc(-c2nc(C3CC3)no2)c2c1CCN(C(=O)Nc1ccc(C(F)(F)F)cc1)C2 | 959
17 | CC(C)c1ccc(NC(=O)C2CCN(C(=O)C3Sc4ccccc4NC3=O)CC2)cc1 (stereo unspecified) | 872
18 | Cc1nc(-c2cc(S(=O)(=O)N(C)C3CCCCC3)c(C)s2)sc1C | 1320
19 | O=C(O)CCC1CCN(S(=O)(=O)c2ccccc2F)CC1 | 751
20 | Cc1ccc(C(=O)NCc2ccc(-n3ccnc3)cc2)s1 | 602
21 | NC(=O)OCCCc1ccccc1 | 817
22 | O=C(Cn1cccc1-c1nnc(-c2ccccc2)o1)Nc1ccc(F)c(F)c1 | 997
23 | CCCOc1ccccc1Nc1nc(C(=O)OCC)nc2ccccc12 | 1040

Row | SMILES | RP-LC retention time [s]
24 | CCCn1cc(S(=O)(=O)Nc2cc(C)ccc2C)c2cccnc21 | 960
25 | O=S(=O)(c1cc(-c2noc(C3CCCC3)n2)cs1)N(Cc1cccs1)C1CCCC1 | 933
26 | CCN(c1ccccc1)S(=O)(=O)c1cc(-c2[nH]ncc2C(=O)N2CCCCC2)oc1C | 822
27 | CC(C)(C)c1noc(-c2cccnc2-n2cnc(C(=O)NC3CCCC3)c2)n1 | 968
28 | CCc1noc(-c2nc(-c3ccc(OC)cc3OC)no2)n1 | 976
29 | CN1[C@@H]2CC(OC(=O)[C@H](CO)c3ccccc3)C[C@H]1[C@@H]1O[C@@H]12 (stereo partly specified) | 619
30 | Cn1nc(-c2nnc(-c3ccccc3)o2)c2c1CCN(S(=O)(=O)c1ccccc1C(F)(F)F)C2 | 990
31 | COc1cc(OC)cc(C(=O)N2CCc3cc(-c4csc(C)n4)ccc32)c1 | 977
32 | O=C(NCC1CC1)c1ccc2nc(-c3ccccc3)cn2c1 | 629
33 | O=C(CCn1cnc2cc(-c3noc(-c4ccccc4F)n3)ccc21)N1CCCC1 | 730
34 | CN(C)C(=O)c1ccc2c(c1)nc(CN(C)C(=O)Nc1cccc(Br)c1)n2C | 642
35 | Fc1ccc(Nc2nc(NCC3CCCO3)nc3[nH]ncc23)cc1 (stereo unspecified) | 578
36 | CCC(C)NC(=O)CCc1ccc2nc(-c3ccccc3)[nH]c2c1 (stereo unspecified) | 621
37 | Cc1ccc(CNS(=O)(=O)c2cc(-c3cc(C(F)(F)F)on3)sc2C)cc1 | 1230
38 | COc1ccc(C2(C(=O)N3CCC4(CC3)c3nccn3-c3ccccc3CN4C)CC2)cc1 | 630
39 | COC(=O)c1cc(OC)c(OC)cc1NC(=O)C1=Cc2cc(OC)ccc2OC=C1 | 829
40 | COc1ccccc1-c1noc(C2CCCN2C(=O)c2ccc(NC(C)=O)cc2)n1 (stereo unspecified) | 713
41 | O=C(c1ccccc1F)N1CCC2(C1)C(=O)Nc1ccccc12 (stereo unspecified) | 662
42 | CCC(=O)Nc1ccc(CCc2nc3ccc(C(=O)NC(c4cccs4)C(C)C)cc3[nH]2)cc1 (stereo unspecified) | 702
43 | O=C1CC(NC(=O)c2cnn(-c3ccccc3)n2)CN1 (stereo unspecified) | 603
44 | COC(=O)c1ccccc1NC(=O)CSc1nc2ccccc2s1 | 1030
45 | Cc1nn(CC(=O)N2CCOCC2)c(=O)c2c(-n3cccc3)n(-c3ccc(F)cc3)nc12 | 809
46 | CC(=O)Nc1onc(C)c1-c1ccc(C)c(S(=O)(=O)Nc2ccc(C)cc2Cl)c1 | 864

The remaining lines, values ahead:

Row | RP-LC retention time [s] | SMILES
47 | 1410 | CCCCC1CCC(C(=O)Nc2nc(-c3ccc4c(c3)N(C)C(=O)CO4)c(C)s2)CC1 (stereo unspecified)
48 | 966 | O=C(C1CCCCC1)N1CCCC1c1nc2ccccc2s1 (stereo unspecified)
49 | 584 | O=C(NCC1CCN(c2cc(-c3ccncc3)[nH]n2)CC1)c1ccc2cc[nH]c2c1
50 | 686 | CN(CC(=O)NC1CCCC1)S(=O)(=O)c1c[nH]c(C(=O)N2CCCC2)c1
51 | 881 | CCOC(=O)CNC(=O)N1CCN(c2nc3ccccc3nc2C(F)(F)F)CC1
52 | 858 | Cc1sc2ncnc(N3CCCC(C)C3)c2c1C(=O)Nc1cc(F)c(F)cc1F (stereo unspecified)
53 | 652 | CCOC(=O)C1CCCN(Cc2nc3nc(C)cc(N4CCC(C)CC4)n3n2)C1 (stereo unspecified)
54 | 694 | CSc1ccc(CNC(=O)C2CCN(c3cc(=O)n(C)c(=O)n3C)CC2)cc1
55 | 646 | Cc1occc1C(=O)N1CCc2nn(CC3CC3)c(=O)n2CC1
56 | 856 | CCC(=O)N(C1CCOCC1)C1CCN(S(=O)(=O)c2ccc(F)c(F)c2)CC1
57 | 1290 | O=C(Nc1ccc(Cl)cc1)C1CCCN(c2nc3ccccc3nc2C(F)(F)F)C1 (stereo unspecified)
58 | 841 | CCOC(=O)c1c(S(=O)(=O)N2CCC(C(=O)Nc3ccc(C)c(C)c3)CC2)c(C)n(C)c1C
59 | 774 | CCOC(=O)C1CCN(C(=O)c2sc(Nc3cccc(C)n3)nc2C)CC1
60 | 590 | CCN1CCN(c2cc(C)c3cc(NC(=S)NCc4ccc5c(c4)OCO5)ccc3n2)CC1
61 | 556 | CCOC(=O)C1CCCN(CC(O)COc2ccccc2C(C)=O)C1 (stereo unspecified)
62 | 890 | CCc1ccc(NC(=O)C2CCN(C(=O)c3ncn4c3COC(c3ccc(F)cc3)C4)CC2)cc1 (stereo unspecified)
63 | 1090 | Cc1ccc(-c2csc(-n3nc(C)c(CC(=O)N4CCCC4)c3C)n2)cc1
64 | 935 | CCc1ccc(C2=C(C)C(N3CCCN(C(=O)C(C)(C)CC)CC3)=NS2(=O)=O)cc1
65 | 587 | COc1cc(NC(=O)CN2CCN(c3ccccn3)CC2)cc(OC)c1
66 | 867 | CCOc1ccccc1NC(=O)N1CCN(Cc2nc3cc(Cl)ccc3o2)CC1

— the METLIN SMRT retention time set (Domingo-Almenara et al. 2019)
